These results are taken from patent US10538491B2, “4,5-substituted picolinamide and picolinonitrile metabotropic glutamate receptor 2 negative allosteric modulators” (Vanderbilt University, priority 2015, dated 2020).

Molecules are shown by their SMILES. A value given as a limit tells only on which side of the number the result lay.

For orientation: IC50 means the concentration at which inhibition is half-maximal. Lower therefore signals greater potency.

The target of the assay is rat mGlu2 (Rattus norvegicus (Rat), UniProt P31421). The experiment in a line: mGlu2 Ca2+ flux assay. Format: cell-based. Particulars: for IC50: Gα15 HEK293 cells stably expressing rat mGlu2, glutamate EC80, >10,000 = no plateau, >30,000 = no measurable activity; for remaining activity at 30 µM / rat mGlu2 Glu max: amplitude of response in the presence of 30 μM test compound as percentage of maximal response to glutamate; for remaining activity at 30 µM: read-out: rat mGlu2 Glu max. Summed up:
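Gα15 HEK293 cells stably expressing rat mGlu2, Fluo-4 loaded; compound added, then glutamate at EC20 after 2.3 min and EC80 afterward, calcium flux read as F/F0. Peak amplitude around EC80 addition normalized to glutamate max; IC50 by unconstrained 4-parameter fit, top concentration 30 μM.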
A general note: Calcium assays in cells follow changes in intracellular calcium, usually with a dye or a luminescent sensor.

rat mGlu2, sequence (P31421 19-872): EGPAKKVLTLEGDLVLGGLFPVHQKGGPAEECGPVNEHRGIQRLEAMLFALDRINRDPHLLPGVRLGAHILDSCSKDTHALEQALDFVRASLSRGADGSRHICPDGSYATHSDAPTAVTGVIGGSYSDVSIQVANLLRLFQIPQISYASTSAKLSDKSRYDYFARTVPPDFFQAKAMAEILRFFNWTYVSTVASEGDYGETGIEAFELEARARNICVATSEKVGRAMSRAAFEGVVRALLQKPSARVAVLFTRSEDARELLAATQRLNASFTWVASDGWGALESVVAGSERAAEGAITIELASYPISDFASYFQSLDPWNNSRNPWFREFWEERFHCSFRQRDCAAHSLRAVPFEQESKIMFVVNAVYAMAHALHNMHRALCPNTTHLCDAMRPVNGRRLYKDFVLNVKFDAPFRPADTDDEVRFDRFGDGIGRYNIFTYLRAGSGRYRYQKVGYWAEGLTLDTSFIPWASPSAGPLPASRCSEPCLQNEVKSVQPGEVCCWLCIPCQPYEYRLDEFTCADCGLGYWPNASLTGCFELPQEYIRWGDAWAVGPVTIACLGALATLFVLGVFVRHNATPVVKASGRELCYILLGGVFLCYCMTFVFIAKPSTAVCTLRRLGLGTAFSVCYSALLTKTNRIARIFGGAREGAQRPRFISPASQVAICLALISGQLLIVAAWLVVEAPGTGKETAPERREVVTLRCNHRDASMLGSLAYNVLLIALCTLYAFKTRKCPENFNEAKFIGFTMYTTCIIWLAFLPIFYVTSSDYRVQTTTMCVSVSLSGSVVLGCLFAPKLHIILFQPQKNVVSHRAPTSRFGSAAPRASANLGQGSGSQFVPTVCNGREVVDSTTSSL

As to `NC(=O)c1cc(-c2ccc(F)cc2)c(OCCOc2ccc(F)cc2)cn1` [Compound 107, 5-(2-(4-fluorophenoxy)ethoxy)-4-(4-fluorophenyl)picolinamide], the IC50 came to 8.51 µM and the remaining activity at 30 µM was -10.7%.

Turning to `Cc1ccc(COc2cnc(C#N)cc2-c2ccc(F)cc2)cn1` [Compound 14, 4-(4-fluorophenyl)-5-((6-methylpyridin-3-yl)methoxy)picolinonitrile], the IC50 is more than 30 µM.

On to `COc1ccc(COc2cnc(C#N)cc2-c2ccc(F)cc2)cn1` [Compound 15, 4-(4-fluorophenyl)-5-((6-methoxypyridin-3-yl)methoxy)picolinonitrile], for which the IC50 was more than 30 µM.

On to `Cc1ncc(OC(C)COc2cnc(C(N)=O)cc2-c2ccc(F)cc2)cn1` (centres unmarked) [Compound 122, 4-(4-fluorophenyl)-5-(2-((2-methylpyrimidin-5-yl)oxy)propoxy)picolinamide], for which the IC50 was more than 10 µM and the remaining activity at 30 µM was determined as 8.04%.

Consider `COc1cc(COc2cnc(C(N)=O)cc2-c2ccc(F)cc2)ccn1` [Compound 46, 4-(4-fluorophenyl)-5-((2-methoxypyridin-4-yl)methoxy)picolinamide], for which the IC50 stood at 0.204 µM and the remaining activity at 30 µM was determined as 2.17%.

In the case of `NC(=O)c1cc(-c2ccc(F)cc2)c(OCCOc2cc(Br)ccc2F)cn1` [Compound 101, 5-(2-(5-bromo-2-fluorophenoxy)ethoxy)-4-(4-fluorophenyl)picolinamide], the IC50 worked out at 4.26 µM and the remaining activity at 30 µM stood at 1.85%.

Regarding `Cc1cc(COc2cnc(C(N)=O)cc2-c2ccc(F)cc2)ccn1` [Compound 45, 4-(4-fluorophenyl)-5-((2-methylpyridin-4-yl)methoxy)picolinamide], the IC50 was determined as 0.195 µM and the remaining activity at 30 µM was found to be 1.17%.

For the compound `NC(=O)c1cc(-c2ccc(F)cc2)c(OC2CN(c3ccnc(C(F)(F)F)c3)C2)cn1` [Compound 58, 4-(4-fluorophenyl)-5-((1-(2-(trifluoromethyl)pyridin-4-yl)azetidin-3-yl)oxy)picolinamide], it took 4.14 µM to reach half-maximal inhibition (IC50) and the remaining activity at 30 µM came to 4.3%.

`Cc1ccc(OCCOc2cnc(C(N)=O)cc2-c2ccc(F)cc2)cn1` [Compound 114]: the IC50 worked out at 0.738 µM and the “rat mGlu2 Glu max” value is on record as 1.80%.

In turn, `N#Cc1cc(-c2ccc(F)cc2)c(OCCCN2CCOCC2)cn1` [Compound 71, 4-(4-fluorophenyl)-5-(3-morpholinopropoxy)picolinonitrile] displayed a half-maximal inhibitory concentration (IC50) of more than 30 µM.

Turning to `N#Cc1cc(-c2ccc(F)cc2)c(OCCCN2CCC(F)(F)CC2)cn1` [Compound 74, 5-(3-(4,4-difluoropiperidin-1-yl)propoxy)-4-(4-fluorophenyl)picolinonitrile], the half-maximal inhibitory concentration (IC50) was more than 10 µM and the remaining activity at 30 µM was 49.6%.

Consider `NC(=O)c1cc(-c2ccc(F)cc2)c(N2CCC(Oc3cccnc3)CC2)cn1` [Compound 140, 4-(4-fluorophenyl)-5-(4-(pyridin-3-yloxy)piperidin-1-yl)picolinamide], for which the IC50 was more than 10 µM and the remaining activity at 30 µM came out at 29.8%.

As for `NC(=O)c1cc(-c2ccc(F)cc2)c(OCCOc2cncc(F)c2)cn1` [Compound 112], the IC50 was found to be 0.827 µM and the “rat mGlu2 Glu max” value came out at 0.05%.

Turning to `NC(=O)c1cc(-c2ccc(F)cc2)c(N2CCC(Oc3ccc(C(F)(F)F)nc3)CC2)cn1` [Compound 77, 4-(4-Fluorophenyl)-5-(4-((6-(trifluoromethyl)pyridin-3-yl)oxy)piperidin-1-yl)picolinamide], the IC50 is more than 30 µM and the remaining activity at 30 µM is 35.1%.

As to `Cn1cc(-c2cc(C(N)=O)ncc2OCc2ccc(C(F)(F)F)nc2)cn1` [Compound 87, 4-(1-methyl-1H-pyrazol-4-y1)-5-((6-(trifluoromethyl)pyridin-3-yl)methoxy)picolinamide], the IC50 is more than 10 µM and the “rat mGlu2 Glu max” value was determined as 29.69%.

`N#Cc1ccc(F)c(COc2cnc(C(N)=O)cc2-c2ccc(F)cc2)c1` [Compound 147, 5-((5-cyano-2-fluorobenzyl)oxy)-4-(4-fluorophenyl)picolinamide]: the IC50 was found to be 0.313 µM and the remaining activity at 30 µM amounted to 0.73%.

With `CC(COc1ccnc(C(F)(F)F)c1)Oc1cnc(C(N)=O)cc1-c1ccc(F)cc1` (centres unmarked) [Compound 120, 4-(4-fluorophenyl)-5-((1-((2-(trifluoromethyl)pyridin-4-yl)oxy)propan-2-yl)oxy)picolinamide], the IC50 came out at 0.483 µM and the remaining activity at 30 µM is 1.72%.

Turning to `NC(=O)c1cc(-c2ccc(F)cc2)c(OCCCOc2ccc(C(F)(F)F)nc2)cn1` [Compound 126], the half-maximal inhibitory concentration (IC50) stood at 2.94 µM and the “rat mGlu2 Glu max” value stood at 5.52%.

Regarding `NC(=O)c1cc(-c2ccc(F)cc2)c(OCCOc2ccc(F)c(Br)c2)cn1` [Compound 103, 5-(2-(3-bromo-4-fluorophenoxy)ethoxy)-4-(4-fluorophenyl)picolinamide], the IC50 is more than 10 µM and the remaining activity at 30 µM is 53.7%.

Turning to `CN(CCN1CCOCC1)c1cnc(C#N)cc1-c1ccc(F)cc1` [Compound 3, 4-(4-fluorophenyl)-5-(methyl(2-morpholinoethyl)amino)picolinonitrile], the IC50 was more than 10 µM and the remaining activity at 30 µM stood at 52.4%.

`N#Cc1cc(-c2ccc(F)cc2)c(OCc2cc(F)cc(F)c2)cn1` [Compound 12, 5-((3,5-difluorobenzyl)oxy)-4-(4-fluorophenyl)picolinonitrile]: the IC50 is more than 30 µM.

For `CC(CNc1cnc(C(N)=O)cc1-c1ccc(F)cc1)N1CCOCC1` (centres unmarked) [Compound 135, 4-(4-fluorophenyl)-5-((2-morpholinopropyl)amino)picolinamide], the IC50 was 5.7 µM and the remaining activity at 30 µM turned out to be 1.19%.

`COc1ccc(-c2cc(C(N)=O)ncc2OCc2ccnc(C)c2)c(F)c1` [Compound 88, 4-(2-fluoro-4-methoxyphenyl)-5-((2-methylpyridin-4-yl)methoxy)picolinamide]: the half-inhibitory concentration (IC50) came to 0.029 ± 0.005 µM and the remaining activity at 30 µM worked out at 1.65 ± 0.23%.

Consider `NC(=O)c1cc(-c2ccc(F)cc2)c(OCc2cc(F)cc(Br)c2)cn1` [Compound 37, 5-((3-bromo-5-fluorobenzyl)oxy)-4-(4-fluorophenyl)picolinamide], for which the half-inhibitory concentration (IC50) is 1.47 µM and the remaining activity at 30 µM worked out at 3.54%.

Take `CC(CNc1cnc(C#N)cc1-c1ccc(F)cc1)N1CCOCC1` (centres unmarked) [Compound 5, 4-(4-fluorophenyl)-5-((2-morpholinopropyl)amino)picolinonitrile]: the IC50 was more than 10 µM and the remaining activity at 30 µM is 36.2%.

For the compound `N#Cc1cc(COc2cnc(C(N)=O)cc2-c2ccc(F)cc2)ccc1F` [Compound 148, 5-((3-cyano-4-fluorobenzyl)oxy)-4-(4-fluorophenyl)picolinamide], the IC50 stood at 1.68 µM and the remaining activity at 30 µM was 0.43%.

`NC(=O)c1cc(-c2ccc(F)cc2)c(OCCOc2cccc(Br)c2F)cn1` [Compound 104, 5-(2-(3-bromo-2-fluorophenoxy)ethoxy)-4-(4-fluorophenyl)picolinamide]: the 50% inhibitory concentration (IC50) is more than 30 µM.

On to `Cc1ccc(OCCCOc2cnc(C(N)=O)cc2-c2ccc(F)cc2)cn1` [Compound 129], for which the IC50 amounted to 2.87 µM and the “rat mGlu2 Glu max” value is reported as 2.91%.

For the compound `NC(=O)c1cc(-c2ccc(F)cc2)c(OCc2cc(Br)ccc2F)cn1` [Compound 36, 5-((5-bromo-2-fluorobenzyl)oxy)-4-(4-fluorophenyl)picolinamide], the midpoint of inhibition, the IC50, lay at 0.65 µM and the remaining activity at 30 µM came out at 3.82%.

As to `N#Cc1cc(-c2ccc(F)cc2)c(OCc2cccnc2)cn1` [Compound 10, 4-(4-fluorophenyl)-5-(pyridin-3-ylmethoxy)picolinonitrile], the IC50 is more than 10 µM and the remaining activity at 30 µM turned out to be 37%.

For the compound `N#Cc1cc(-c2ccc(F)cc2)c(OCc2ccc3nccn3c2)cn1` [Compound 21, 4-(4-fluorophenyl)-5-(imidazo[1,2-a]pyridin-6-ylmethoxy)picolinonitrile], the concentration for half-maximal inhibition (IC50) came out at 3.49 µM and the remaining activity at 30 µM was 16.1%.

Consider `C[C@@H]1CN(Cc2cnc(C(N)=O)cc2-c2ccc(F)cc2)C[C@H](C)O1` [Compound 79, 5-(((cis)-2,6-dimethylmorpholino)methyl)-4-(4-fluorophenyl)picolinamide], for which the half-inhibitory concentration (IC50) is 0.987 µM and the remaining activity at 30 µM was determined as 0.52%.

As to `NC(=O)c1cc(-c2ccc(F)cc2)c(COc2ccnc(C(F)(F)F)c2)cn1` [Compound 93, 4-(4-fluorophenyl)-5-(((2-(trifluoromethyl)pyridin-4-yl)oxy)methyl)picolinamide], half-maximal inhibition (IC50) required 0.477 µM and the remaining activity at 30 µM worked out at 0.38%.

On to `CN(CCN1CCOCC1)c1cnc(C(N)=O)cc1-c1ccc(F)cc1` [Compound 136, 4-(4-fluorophenyl)-5-(methyl(2-morpholinoethyl)amino)picolinamide], for which the IC50 is more than 10 µM and the remaining activity at 30 µM was 31%.

In the case of `NC(=O)c1cc(-c2ccc(F)cc2)c(N2CC(Oc3ccc(C(F)(F)F)nc3)C2)cn1` [Compound 141, 4-(4-fluorophenyl)-5-(3-((6-(trifluoromethyl)pyridin-3-yl)oxy)azetidin-1-yl)picolinamide], the IC50 is more than 10 µM and the remaining activity at 30 µM was determined as 53.9%.

Consider `Cc1ncc(OCCOc2cnc(C#N)cc2-c2ccc(F)cc2)cn1` [Compound 75, 4-(4-Fluorophenyl)-5-(2-((2-methylpyrimidin-5-yl)oxy)ethoxy)picolinonitrile], for which the half-inhibitory concentration (IC50) was more than 10 µM and the remaining activity at 30 µM was found to be 30.2%.

On to `N#Cc1cc(-c2ccc(F)cc2)c(OCc2cncc(Cl)c2)cn1` [Compound 13, 5-((5-chloropyridin-3-yl)methoxy)-4-(4-fluorophenyl)picolinonitrile], for which the IC50 was more than 30 µM.
